Patent US10365275B2, “Immunologically active polypeptide” (Institute of Arthritis Research, LLC, priority 2013, dated 2019)

How the values were obtained:
Type in all cases: cell-based
[1] = test system: human peripheral blood white cells (WBC); assay: TNFα production by WBC during short-term incubation with S. aureus (ELISA); settings: for TNFα concentration: 3-hour culture
Procedure: Staphylococcus aureus bacteria were incubated with human peripheral blood white cells (WBC) in the absence or presence of PeptideX2 (0, 10, and 100 μg/ml), and the effects on S. aureus growth were assessed by serial dilutions, microbiological plating and determination by counting colony forming units (CFU) in culture samples withdrawn after incubation times of 0, 1.5 and 3 hours. The WBC-to-Staph ratio was 100:1, using WBC at 4×10^6/ml and Staph 4×10^4 CFU/ml. Supernatant fluids from the same experimental cultures were also tested for TNFα production by WBC during the short-term incubations with S. aureus. […] In this three-hour timeframe, however, the presence of PeptideX2 at these concentrations had no effect on WBC bacteriocidal activity against S. aureus.

peripheral blood cells = assay: Cytokine production by human peripheral blood cells (MSD panel)
Procedure: In order to examine the biological activity of IgX, cytokine production from human peripheral whole blood samples incubated with IgX was measured. Peripheral whole blood samples from three different donors (#66, 67, and 85) were obtained with appropriate informed consent and incubated with concentrations of IgX ranging from 0 to 200 ug/ml.
Protein A purified IgX was prepared from placental sample BC, brought to 0.05 M phosphate, 0.15 M NaCl buffer, pH 7.4, treated with an endotoxin affinity column (ActiClean Etox™ from Sterogene, Carlsbad, Calif.) according to the supplier's instructions, and then sent to IBT Bioservices (Gaithersburg, Md.) for human peripheral blood testing. […] All peripheral blood cells were suspended in RPMI-1640 media. Various concentrations of IgX were incubated with peripheral blood cells from donor D66 for 18 hours, and then the samples were stimulated with 1 ug/ml of PHA, 50 ng/ml of LPS, or 10 ng/ml of IFNγ (200 U/ml) for four hours. Samples of culture supernatant fluids were tested in duplicate for the presence of IL-2, IL-4, IL-6, IL-10, IL-12, and TNFα using a Meso Scale Discovery (MSD, Gaithersburg, Md.) panel.
PeptideX1 and PeptideX2 were incubated with peripheral blood cells from donor D67 as described above and tested in duplicate for IL-6 activity. […]

Staphylococcus aureus = assay: S. aureus growth (CFU) with human peripheral blood white cells
Procedure: Staphylococcus aureus bacteria were incubated with human peripheral blood white cells (WBC) in the absence or presence of PeptideX2 (0, 10, and 100 μg/ml), and the effects on S. aureus growth were assessed by serial dilutions, microbiological plating and determination by counting colony forming units (CFU) in culture samples withdrawn after incubation times of 0, 1.5 and 3 hours. The WBC-to-Staph ratio was 100:1, using WBC at 4×10^6/ml and Staph 4×10^4 CFU/ml.

human TLR2 = target: T1, human TLR2 (Homo sapiens, UniProt O60603); assay: NF-κB-driven SEAP reporter assay in TLR-transfected HEK293 cells
T1 construct: host or cells: HEK293
T1 sequence (O60603 21-784): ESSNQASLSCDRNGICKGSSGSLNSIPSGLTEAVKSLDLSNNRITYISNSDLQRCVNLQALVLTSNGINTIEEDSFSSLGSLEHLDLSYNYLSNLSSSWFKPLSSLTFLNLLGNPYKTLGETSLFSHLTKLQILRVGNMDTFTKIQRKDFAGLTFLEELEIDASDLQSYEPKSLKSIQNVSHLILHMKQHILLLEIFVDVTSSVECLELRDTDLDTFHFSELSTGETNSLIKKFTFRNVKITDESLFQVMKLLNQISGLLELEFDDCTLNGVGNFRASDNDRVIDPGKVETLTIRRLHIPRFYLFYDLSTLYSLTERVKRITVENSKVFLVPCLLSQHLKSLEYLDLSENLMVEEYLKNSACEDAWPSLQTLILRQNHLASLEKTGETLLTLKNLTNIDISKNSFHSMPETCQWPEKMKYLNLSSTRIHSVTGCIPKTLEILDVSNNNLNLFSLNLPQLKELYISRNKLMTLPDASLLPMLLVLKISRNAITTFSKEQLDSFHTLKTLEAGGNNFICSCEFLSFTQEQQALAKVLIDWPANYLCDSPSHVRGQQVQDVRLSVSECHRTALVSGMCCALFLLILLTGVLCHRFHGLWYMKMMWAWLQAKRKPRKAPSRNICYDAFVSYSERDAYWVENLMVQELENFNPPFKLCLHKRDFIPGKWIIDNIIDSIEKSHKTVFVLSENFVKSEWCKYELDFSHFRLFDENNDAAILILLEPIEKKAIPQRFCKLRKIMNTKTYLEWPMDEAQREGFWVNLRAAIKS
Procedure: (§1) PeptideX2 (200 μg/mL) was tested for its effects on human TLR-driven NF-κB activation in HEK293 cell lines transfected with human TLR2, 3, 4, 5, 7, 8 or 9 (InvivoGen, San Diego, Calif.). HEK293 cells (50,000 to 75,000 cells/well) expressing the indicated TLR were plated in wells of a 96-well plate (200 μl total volume) containing either with no additions, PeptideX2 (in 20 μl buffer), or buffer only (20 μl) as a vehicle control. All cells contained a reporter construct having coding sequence for Secreted Embryonic Alkaline Phosphatase (SEAP) under the control of a promoter inducible by the transcription of NF-κB, and were incubated in media containing a detectable SEAP expression indicator (InvivoGen, San Diego, Calif.). After 16-20 hours incubation at 37° C., the optical density of culture supernatants was read at 650 nm on a Molecular Devices SpectraMax™ 340PC absorbance detector.
(§2) The relative potency of PeptideX2 induction of human TLR-mediated NF-κB activation was compared to the effects of known PAMP ligands that have activity as agonists for each of the human TLRs TLR2, TLR3, TLR4, TLR5, TLR7, TLR8 and TLR9, using the NF-κB-driven SEAP reporter assay (InvivoGen, San Diego, Calif.). The known TLR agonists were as follows: for TLR2, heat killed Listeria monocytogenes (HKLM) at 10^8 cells/ml; for TLR3, poly(I:C) at 1 ug/ml; for TLR4, E. coli K12 LPS at 100 ng/ml; for TLR5, S. typhimurium flagellin at 100 ng/ml; for TLR7, CL097 at 1 ug/ml; for TLR8, CL075 at 1 ug/ml; for TLR9, CpG ODN 2006 at 100 ng/ml.

human TLR4 = target: T2, human TLR4 (Homo sapiens, UniProt O00206); assay: as above; settings: PeptideX2 200 μg/mL, 16-20 hours
T2 construct: host or cells: HEK293
T2 sequence (O00206 24-839): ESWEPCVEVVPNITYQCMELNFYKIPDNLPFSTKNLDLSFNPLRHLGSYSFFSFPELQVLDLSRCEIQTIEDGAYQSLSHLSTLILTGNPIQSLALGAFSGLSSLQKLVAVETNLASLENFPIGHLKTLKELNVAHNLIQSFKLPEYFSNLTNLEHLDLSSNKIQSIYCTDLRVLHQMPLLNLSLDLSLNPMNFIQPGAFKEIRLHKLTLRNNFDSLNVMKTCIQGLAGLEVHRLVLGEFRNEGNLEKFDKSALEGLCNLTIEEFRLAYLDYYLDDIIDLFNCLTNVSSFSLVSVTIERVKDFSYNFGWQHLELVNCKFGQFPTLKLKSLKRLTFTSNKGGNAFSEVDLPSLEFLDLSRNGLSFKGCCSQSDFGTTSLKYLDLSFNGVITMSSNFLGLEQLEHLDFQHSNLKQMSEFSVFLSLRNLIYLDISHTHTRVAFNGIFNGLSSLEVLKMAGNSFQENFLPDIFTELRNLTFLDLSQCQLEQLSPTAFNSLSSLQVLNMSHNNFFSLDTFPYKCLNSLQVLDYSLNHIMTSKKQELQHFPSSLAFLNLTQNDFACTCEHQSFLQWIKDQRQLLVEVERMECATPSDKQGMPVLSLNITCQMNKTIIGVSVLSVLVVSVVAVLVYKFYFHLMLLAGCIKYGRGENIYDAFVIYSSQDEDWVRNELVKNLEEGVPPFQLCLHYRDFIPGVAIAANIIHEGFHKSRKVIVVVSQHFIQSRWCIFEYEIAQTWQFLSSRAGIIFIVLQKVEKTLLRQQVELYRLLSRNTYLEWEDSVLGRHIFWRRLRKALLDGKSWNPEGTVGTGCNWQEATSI
T2 sequence (Q9Y6Y9 17-160 partner limits assumed): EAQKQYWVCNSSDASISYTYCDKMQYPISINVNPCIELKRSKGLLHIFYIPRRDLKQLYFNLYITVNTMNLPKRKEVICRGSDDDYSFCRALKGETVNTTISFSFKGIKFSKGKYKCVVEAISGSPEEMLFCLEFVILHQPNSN
Procedure: as §1, §2

E. coli = E. coli growth (CFU) with human peripheral blood leukocytes; settings: E. coli with WBCs with PeptideX2, 10 hours
Procedure: Human peripheral blood leukocytes (WBCs) were obtained from healthy donors with informed consent. Three test groups were inoculated with E. coli and incubated for 10 hours. The three groups were E. coli with serum alone, E. coli with WBCs, and E. coli with WBCs with PeptideX2. Samples were taken at 0, 2, 4, 6 and 10 hours and plated for colony forming units (CFUs). […] In a separate but similar experiment, nine test groups (E. coli with serum alone, E. coli with WBCs, and E. coli with WBCs with PeptideX2 at each of seven indicated concentrations, see FIG. 12) were incubated over a time course of three hours, with quantification of bacterial CFU performed at times 0, 1.5 and 3 hours (FIG. 12).

[2] = test system: murine TLR3, 5, 7, 8 or 9; assay: NF-κB-driven SEAP reporter assay in TLR-transfected HEK293 cells; settings: PeptideX2 200 μg/mL
Procedure: as §1
(§3) PeptideX2 (200 μg/mL) was also tested for its effects on murine TLR-driven NE-κB activation in HEK293 cell lines transfected with murine TLR2, 3, 4, 5, 7, 8 or 9 (InvivoGen, San Diego, Calif.) essentially as described above.

murine TLR4 = target: T3, murine TLR4 (Mus musculus, UniProt Q9QUK6); assay: as above; settings: PeptideX2 200 μg/mL
T3 construct: host or cells: HEK293
T3 sequence (Q9QUK6 26-835): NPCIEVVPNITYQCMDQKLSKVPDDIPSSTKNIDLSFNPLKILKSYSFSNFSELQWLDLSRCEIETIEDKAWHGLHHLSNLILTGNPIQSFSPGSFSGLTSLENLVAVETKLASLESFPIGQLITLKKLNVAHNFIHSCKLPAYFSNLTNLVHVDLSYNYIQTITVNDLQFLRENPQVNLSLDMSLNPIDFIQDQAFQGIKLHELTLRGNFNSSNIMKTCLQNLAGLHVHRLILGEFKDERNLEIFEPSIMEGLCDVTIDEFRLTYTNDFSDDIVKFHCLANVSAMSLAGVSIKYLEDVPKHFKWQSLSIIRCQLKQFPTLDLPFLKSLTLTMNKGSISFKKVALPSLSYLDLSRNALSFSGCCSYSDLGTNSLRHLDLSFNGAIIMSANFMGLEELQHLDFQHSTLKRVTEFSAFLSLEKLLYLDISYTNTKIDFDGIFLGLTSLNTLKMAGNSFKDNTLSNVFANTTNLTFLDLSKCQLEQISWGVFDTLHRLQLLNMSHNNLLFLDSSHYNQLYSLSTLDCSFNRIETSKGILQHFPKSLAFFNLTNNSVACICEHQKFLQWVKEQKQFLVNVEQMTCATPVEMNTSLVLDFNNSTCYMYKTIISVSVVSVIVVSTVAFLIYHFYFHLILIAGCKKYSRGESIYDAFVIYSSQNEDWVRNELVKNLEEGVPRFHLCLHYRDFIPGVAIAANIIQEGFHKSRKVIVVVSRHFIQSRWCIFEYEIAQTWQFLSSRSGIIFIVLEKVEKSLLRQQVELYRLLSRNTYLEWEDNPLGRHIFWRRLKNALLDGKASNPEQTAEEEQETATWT
T3 sequence (Q9JHF9 19-160 partner): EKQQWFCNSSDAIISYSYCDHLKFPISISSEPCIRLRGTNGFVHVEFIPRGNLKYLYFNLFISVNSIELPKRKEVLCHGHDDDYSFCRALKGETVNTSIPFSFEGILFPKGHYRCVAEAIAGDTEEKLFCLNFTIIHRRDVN
Procedure: as §1, §3

murine TLR2 = target: T4, murine TLR2 (Mus musculus, UniProt Q9QUN7); assay: as above; settings: PeptideX2 200 μg/mL
T4 construct: host or cells: HEK293
T4 sequence (Q9QUN7 25-784): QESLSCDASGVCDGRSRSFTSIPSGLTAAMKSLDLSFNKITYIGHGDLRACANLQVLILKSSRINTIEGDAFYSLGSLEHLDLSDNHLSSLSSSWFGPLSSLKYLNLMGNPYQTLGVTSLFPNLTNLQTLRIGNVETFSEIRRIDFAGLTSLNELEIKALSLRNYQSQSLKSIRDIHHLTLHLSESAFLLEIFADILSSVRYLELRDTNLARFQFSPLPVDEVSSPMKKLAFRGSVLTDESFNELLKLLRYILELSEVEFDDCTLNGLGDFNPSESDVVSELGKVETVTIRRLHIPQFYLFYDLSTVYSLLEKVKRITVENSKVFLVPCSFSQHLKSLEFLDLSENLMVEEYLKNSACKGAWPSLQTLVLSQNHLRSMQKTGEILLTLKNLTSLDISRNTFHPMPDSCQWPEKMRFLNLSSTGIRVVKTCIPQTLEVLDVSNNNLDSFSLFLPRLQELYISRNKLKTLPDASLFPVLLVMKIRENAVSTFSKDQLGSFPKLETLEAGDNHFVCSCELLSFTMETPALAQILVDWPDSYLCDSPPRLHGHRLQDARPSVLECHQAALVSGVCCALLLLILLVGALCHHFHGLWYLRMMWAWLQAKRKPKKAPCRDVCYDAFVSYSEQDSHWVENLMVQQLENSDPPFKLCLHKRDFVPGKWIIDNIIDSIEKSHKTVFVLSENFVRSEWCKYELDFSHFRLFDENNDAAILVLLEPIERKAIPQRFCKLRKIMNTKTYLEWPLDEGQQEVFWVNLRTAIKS
Procedure: as §1, §3

KSIAYLQMNSLK (Peptide fragment) [PeptideX2, dodecapeptide derived from the heavy chain hypervariable region of IgX, residues 97-108 of AAH90938.1]
reduction in TNFα production ([1]; 100 ug/ml PeptideX2, 3-hour timepoint): 65% | TNFα concentration ([1]; WBC plus PeptideX2 at 10 ug/ml): 160 pg/mL | TNFα concentration ([1]; WBC plus PeptideX2 at 100 ug/ml): 76 pg/mL | TNFα concentration ([1]; serum plus PeptideX2 at 100 ug/ml (no WBC)): 0.05 pg/mL | reduction in TNFα production ([1]; PeptideX2 at 10 ug/ml, 3-hour timepoint): 27% | IL-6 production (peripheral blood cells; cells from donor #67, compared to peptideX1): significantly greater IL-6 production compared to peptideX1 | IL-6 production (peripheral blood cells; cells from donor #85, PeptideX2 0, 10, 100 or 200 ug/ml): enhanced production | effect on WBC bacteriocidal activity against S. aureus (Staphylococcus aureus; PeptideX2 10 and 100 ug/ml, three-hour timeframe): no effect | S. aureus growth (Staphylococcus aureus; WBC present, up to three hours, presence or absence of PeptideX2 (0, 10, 100 μg/ml)): no S. aureus growth was detected | TLR2-mediated response as level of the response to HKLM (human TLR2; PeptideX2 200 μg/mL vs HKLM at 10^8 cells/ml): 14% | NF-κB activation via TLR2 (human TLR2; PeptideX2 200 μg/mL, 16-20 hours): activation of NF-κB via TLR2 and TLR4 | NF-κB activation via TLR4 (human TLR4): activation of NF-κB via TLR2 and TLR4 | E. coli CFUs (E. coli): rapid rise in CFUs | NF-κB-driven SEAP expression through the other murine TLRs tested [2]: not through the other TLRs tested | NF-κB-driven SEAP expression through murine TLR4 (murine TLR4): induction | potency via murine TLR4 relative to murine TLR2 (murine TLR4): greater potency in activating via murine TLR4 relative to murine TLR2 | NF-κB-driven SEAP expression through murine TLR2 (murine TLR2): induction
